Results: the CheMixHub viscosity set

Assay: xn = mol fraction of the nth substance listed

CCCCCCCCCCO + CCCCO
viscosity [mPa·s]
Conditions	293.15 K	298.15 K	308.15 K	318.15 K
101 kPa, x2 = 0.05	–	10.62	7.143	5.139
101 kPa, x2 = 0.1	–	10.2	6.798	4.922
101 kPa, x2 = 0.15	–	9.731	6.473	4.71
101 kPa, x2 = 0.2	–	9.226	6.163	4.501
101 kPa, x2 = 0.25	–	8.701	5.866	4.294
101 kPa, x2 = 0.3	–	8.167	5.576	4.088
101 kPa, x2 = 0.35	–	7.635	5.292	3.883
101 kPa, x2 = 0.4	–	7.113	5.012	3.678
101 kPa, x2 = 0.45	–	6.609	4.734	3.475
101 kPa, x2 = 0.5	–	6.127	4.456	3.272
101 kPa, x2 = 0.55	–	5.671	4.179	3.07
101 kPa, x2 = 0.6	–	5.243	3.903	2.872
101 kPa, x2 = 0.65	–	4.843	3.629	2.676
101 kPa, x2 = 0.7	–	4.47	3.358	2.485
101 kPa, x2 = 0.75	–	4.12	3.093	2.301
101 kPa, x2 = 0.8	–	3.788	2.837	2.124
101 kPa, x2 = 0.85	–	3.468	2.592	1.958
101 kPa, x2 = 0.9	–	3.152	2.364	1.804
101 kPa, x2 = 0.95	–	2.828	2.157	1.665
101.33 kPa, x2 = 0.1748	11.91	–	–	–
101.33 kPa, x2 = 0.1793	–	9.791	–	–
101.33 kPa, x2 = 0.2939	10.27	–	–	–
101.33 kPa, x2 = 0.4002	–	7.559	–	–
101.33 kPa, x2 = 0.491	7.756	–	–	–
101.33 kPa, x2 = 0.5389	–	6.102	–	–
101.33 kPa, x2 = 0.6325	6.156	–	–	–
101.33 kPa, x2 = 0.7242	–	4.498	–	–
101.33 kPa, x2 = 0.7787	4.69	–	–	–
101.33 kPa, x2 = 0.836	–	3.659	–	–
101.33 kPa, x2 = 0.8851	3.806	–	–	–
101.33 kPa, x2 = 0.9219	–	3.077	–	–

CCCCCC(=O)[O-].[NH3+]CCO + CCO
viscosity [mPa·s], 101 kPa
Conditions	x1 = 0.0135	x2 = 0.794	x2 = 0.8544	x2 = 0.9	x2 = 0.9391	x2 = 0.9563	x2 = 0.9719
293.15 K	1.548	13.46	7.158	4.35	2.76	2.28	1.86
298.15 K	1.428	11.38	6.24	3.87	2.472	2.046	1.74
303.15 K	1.29	9.792	5.43	3.39	2.22	1.848	1.512

Cc1ccccc1C + CC(C)CC(C)(C)C
308.15 K, 101 kPa
Conditions	viscosity [mPa·s]
x2 = 0.1337	0.6095
x2 = 0.2492	0.5663
x2 = 0.3373	0.539
x2 = 0.4352	0.5141
x2 = 0.5589	0.4878
x2 = 0.6421	0.4734
x2 = 0.7365	0.4602
x2 = 0.8167	0.4525
x2 = 0.917	0.4417

CCC#N + CC(C)(C)O
viscosity [mPa·s], 101 kPa
Conditions	x2 = 0.0744	x2 = 0.1541	x2 = 0.2403	x2 = 0.3272	x2 = 0.4258	x2 = 0.5242	x2 = 0.6146	x2 = 0.7448	x2 = 0.8667
298.15 K	0.4226	0.4462	0.4934	0.5641	0.6672	0.8059	1.024	1.526	2.346
303.15 K	0.4138	0.4431	0.487	0.5397	0.6276	0.739	0.9208	1.34	2.022
308.15 K	0.3997	0.4317	0.4754	0.5219	0.5918	0.6821	0.8394	1.186	1.741

Cc1ccccc1C + C1CCCCC1
viscosity [mPa·s], 101 kPa
Conditions	x1 = 0.0998	x1 = 0.2001	x1 = 0.3	x1 = 0.4	x1 = 0.5	x1 = 0.6	x1 = 0.7001	x1 = 0.7999	x1 = 0.9
303.15 K	0.7647	0.7241	0.6977	0.6817	0.6728	0.6706	0.6735	0.681	0.6924
308.15 K	0.7083	0.6736	0.6511	0.6372	0.6306	0.6289	0.6317	0.639	0.65
313.15 K	0.6583	0.6281	0.6097	0.5979	0.592	0.5919	0.5946	0.6015	0.6118
318.15 K	0.6129	0.5876	0.572	0.5615	0.5568	0.5562	0.5614	0.5679	0.5772
323.15 K	0.5722	0.5508	0.5372	0.5284	0.5247	0.5248	0.5293	0.5365	0.5452

COCCOCCO + ClC(Cl)=C(Cl)Cl
298.15 K, 101.33 kPa
Conditions	viscosity [mPa·s]
x1 = 0.0072	0.852
x1 = 0.0147	0.859
x1 = 0.0261	0.869
x1 = 0.0417	0.884
x1 = 0.0604	0.911
x1 = 0.0868	0.948
x1 = 0.1038	0.975
x1 = 0.1347	1.023
x1 = 0.1769	1.092
x1 = 0.2025	1.139
x1 = 0.2433	1.216
x1 = 0.2755	1.279
x1 = 0.3041	1.34
x1 = 0.3353	1.413
x1 = 0.374	1.504
x1 = 0.4127	1.596
x1 = 0.4577	1.712
x1 = 0.4877	1.796
x1 = 0.5213	1.9
x1 = 0.5632	2.03
x1 = 0.5988	2.14
x1 = 0.6333	2.253
x1 = 0.6701	2.366
x1 = 0.7061	2.48
x1 = 0.7414	2.593
x1 = 0.7892	2.754
x1 = 0.8427	2.948
x1 = 0.8844	3.109
x1 = 0.9138	3.225
x1 = 0.9381	3.323
x1 = 0.9613	3.414
x1 = 0.978	3.478
x2 = 0.0115	3.521

C=CCC[n+]1ccn(C)c1.[Br-] + O
viscosity [mPa·s], 101.33 kPa
Conditions	x1 = 0.0009034	x1 = 0.00189	x1 = 0.003585	x1 = 0.005487	x1 = 0.007167	x1 = 0.008848
293.15 K	1.018	1.037	1.071	1.102	1.136	1.164
298.15 K	0.904	0.92	0.95	0.977	1.007	1.031
303.15 K	0.809	0.824	0.85	0.874	0.901	0.922
308.15 K	0.73	0.742	0.765	0.788	0.811	0.83
313.15 K	0.662	0.673	0.694	0.714	0.735	0.753
